Source: patent publication US10813939B2, “Bromodomain inhibitor as adjuvant in cancer immunotherapy” (H. LEE MOFFITT CANCER CENTER AND RESEARCH INSTITUTE, INC., priority 2014, dated 2020)
“Also recorded” adds a separate entry of the source.

Assays:
Assay type in all cases: cell-based
PEM = PEM cell viability after 24 hours JQ1
Description: In order to determine the best working concentration of JQ1 in PEM, plated PEM (96-well plate) were treated with increased concentration of JQ1 for 24 hours then cell viability was determined. A threshold of 100 to 800 nanomolar was determined to be acceptable.

IL-10 [1] = experiment: IL-10 production by ELISA in PEM treated with JQ1 with and without LPS; conditions: PEM (PEM or bone marrow derived DCs), 24 hours, supernatant ELISA
Description: (§1) Macrophages (PEM) were treated with different concentrations of JQ1 in presence and absence of LPS (stimulant for macrophages). After 24 hours, supernatant was collected and IL -10 & IL-6 production was determined by ELISA.

IL-6 [2] = experiment: IL-6 production by ELISA in PEM treated with JQ1 with and without LPS; conditions: PEM (PEM or bone marrow derived DCs), 24 hours, supernatant ELISA
Description: as §1

IL-10 [3] = experiment: IL-10 mRNA expression by real time PCR in PEM; conditions: PEM or DCs, increasing JQ1, LPS stimulation
IL-6 [4] = experiment: IL-6 mRNA expression by real time PCR in PEM; conditions: PEM or DCs, increasing JQ1, LPS stimulation
PD-L1 [5] = experiment: Flow cytometry of PEM with anti-PD-L1; conditions: JQ1 & LPS versus LPS alone, treated versus untreated APCs
Description: (§2) PEM were treated with different concentrations of JQ1 in presence and absence of LPS. Flow cytometry was performed on PEM treated with different concentrations of JQ1 in presence and absence of LPS using anti-PD-Ll and anti-PD-L2 as well as isotype as a control.

PD-L2 = experiment: Flow cytometry of PEM with anti-PD-L2; conditions: JQ1 & LPS versus LPS alone
Description: as §2

PD-L1 [6] = experiment: PD-L1 mRNA expression by real time PCR in PEM; conditions: LPS+JQ1 combination
Naïve CD4 T-cells = experiment: JQ1-treated PEM co-cultured with naive CD4 T-cells and OVA peptide, cytokine ELISA; conditions: PEM treated 24 hours, co-culture 48 hours with OVA peptide
Description: (§3) PEM were treated with different concentrations of JQ1 in presence and absence of LPS. After 24 hours, PEM was washed twice with warm RPMI. Naïve CD4 T-cells or tolerant T-cells were added to the plated macrophages with or without OVA peptide and co-cultured for 48 hours. IL-2 and IFN-γ production were determined by ELISA. Without OVA peptide, there was no production of IL-2 or IFN-γ.

tolerant CD4+ T-cells = experiment: JQ1-treated PEM co-cultured with tolerant T-cells and OVA peptide, IFN-γ ELISA; conditions: PEM treated with JQ1+LPS 24 hours, co-culture 48 hours with OVA peptide, tolerant CD4+ T-cells from lymphoma bearing hosts
Description: as §3

Cc1sc2c(c1C)C(c1ccc(Cl)cc1)=N[C@@H](CC(=O)OC(C)(C)C)c1nnc(C)n1-2 [JQ1, (S)-tert-butyl 2-(4-(4-chlorophenyl)-2,3,9-trimethyl-6H-thieno[3,2-f][1,2,4]triazolo[4,3-a][1,4]diazepin-6-yl)acetate]
acceptable working concentration threshold (cell viability) (PEM; PEM, 96-well plate, 24 hours): 100 to 800 nM | viability of treated APCs (PEM; at the concentration used (FIG. 1)): did not affect the viability | IL-10 production (IL-10 [1]): decreased production | IL-10 production (IL-10 [1]; listed as JQ 1): decreased expression and protein production | IL-6 production (IL-6 [2]): decreased production | IL-6 production (IL-6 [2]; listed as JQ 1): decreased expression and protein production | IL-10 expression (mRNA) (IL-10 [3]): decreased expression | IL-6 expression (mRNA) (IL-6 [4]): decreased expression | PD-L1 expression (flow cytometry) (PD-L1 [5]): relatively decreased expression | PD-L1 expression (flow cytometry) (PD-L1 [5]; listed as JQ 1): decreased expression; also recorded: lower expression | PD-L2 expression (flow cytometry) (PD-L2): relatively decreased expression | PDL1 mRNA expression (PD-L1 [6]): decreased expression | IFN-gamma production by CD4 T-cell (Naïve CD4 T-cells): increase in dose dependent production | IL-2 production by CD4 T-cell (Naïve CD4 T-cells): increase in dose dependent production | IFN-gamma production by CD4 T-cell (Naïve CD4 T-cells; listed as JQ 1): increased production | IL-2 production by CD4 T-cell (Naïve CD4 T-cells; listed as JQ 1): increased production | IFN-gamma production by tolerant T-cells / responsiveness of tolerant T-cells (tolerant CD4+ T-cells): enhanced IFN-gamma production; also recorded: restoration of tolerant T-cell function | IFN-gamma production by tolerant T-cells / responsiveness of tolerant T-cells (tolerant CD4+ T-cells; listed as JQ 1): able to restore the responsiveness; also recorded: capable of restoring the responsiveness
